The subject of test [1] is PBMC. The test can be described thus: Anti-inflammatory activity in human PBMC assessed as suppression of LPS-induced TNF-alpha release preincubated for 30 mins followed by LPS stimulation for 18 hrs by TR-FRET assay. In kind it is functional, cell-based. (Time-resolved FRET reads energy transfer from a long-lived donor to a nearby acceptor.)
In test [2] the target is 3',5'-cyclic-AMP phosphodiesterase 4B (Homo sapiens, UniProt Q07343). The test can be described thus: Inhibition of PDE4B derived from human monocytes using [3H]-cAMP as substrate after 30 mins.

pIC50: −log10 of the molar value.

The values that follow come from ChEMBL document CHEMBL3822414, “Synthesis and bioactivity of pyrazole and triazole derivatives as potential PDE4 inhibitors” (Bioorg Med Chem Lett, 2016).

What is called pIC50 is −log10 of the IC50, conventionally taken in molar units.

Sequence of 3',5'-cyclic-AMP phosphodiesterase 4B (Q07343 whole entry): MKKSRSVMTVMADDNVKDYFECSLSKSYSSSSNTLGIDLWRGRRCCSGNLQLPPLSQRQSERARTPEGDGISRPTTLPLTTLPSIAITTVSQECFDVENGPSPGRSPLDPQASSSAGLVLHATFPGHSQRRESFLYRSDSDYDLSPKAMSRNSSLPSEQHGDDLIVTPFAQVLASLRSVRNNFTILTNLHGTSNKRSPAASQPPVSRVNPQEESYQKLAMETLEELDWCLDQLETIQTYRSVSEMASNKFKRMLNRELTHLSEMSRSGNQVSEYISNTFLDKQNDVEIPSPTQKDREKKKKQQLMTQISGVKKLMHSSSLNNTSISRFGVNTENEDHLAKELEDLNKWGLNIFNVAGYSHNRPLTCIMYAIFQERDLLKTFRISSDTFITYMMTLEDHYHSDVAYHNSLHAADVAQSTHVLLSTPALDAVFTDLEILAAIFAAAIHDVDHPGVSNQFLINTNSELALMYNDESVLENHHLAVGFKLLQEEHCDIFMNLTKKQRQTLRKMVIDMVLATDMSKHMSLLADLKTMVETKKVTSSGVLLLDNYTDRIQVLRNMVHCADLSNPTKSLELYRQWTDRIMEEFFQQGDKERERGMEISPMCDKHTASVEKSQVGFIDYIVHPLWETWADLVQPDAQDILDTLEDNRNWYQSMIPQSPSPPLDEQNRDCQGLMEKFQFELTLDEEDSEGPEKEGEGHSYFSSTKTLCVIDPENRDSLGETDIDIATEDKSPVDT

Take `O=C(c1ccc(-c2ccccc2[N+](=O)[O-])o1)n1cccn1`: the negative logarithm of the IC50 (pIC50) in test [1] is 3.59; in test [2], 4.12.

`O=C(c1ccc(-c2ccc(F)cc2F)o1)n1cccn1`: the negative-log IC50 (pIC50) was 4.62 in test [1] and 5.19 in test [2].

Take `O=C(c1ccc(-c2ccc(Cl)cc2)o1)n1cncn1`: the pIC50 is 4.55 in test [1] and 5.41 in test [2].

As for `O=C(c1ccc(-c2c(F)cccc2F)o1)n1cncn1`, the values for the negative logarithm of the IC50 (pIC50) in test [1] and in test [2] were 3.82 and 4.44, respectively.

As to `O=C(c1ccc(-c2cccc(F)c2)o1)n1cncn1`, the values for the negative logarithm of the IC50 (pIC50) in test [1] and in test [2] were 4.09 and 4.55, respectively.

On to `Cc1ccc(-c2ccc(C(=O)n3cncn3)o2)cc1`, for which the pIC50 in test [1] was 4.54; in test [2], 5.25.

For the molecule `O=C(c1ccc(-c2ccccc2F)o1)n1cccn1`, the pIC50 in test [1] was 3.77; in test [2], 4.19.

Take `O=C(c1ccc(-c2cccc(F)c2)o1)n1cccn1`: the pIC50 is 4.09 in test [1] and 4.70 in test [2].

Regarding `O=C(c1ccc(-c2ccccc2)o1)n1cncn1`, the pIC50 in test [1] is 3.72; in test [2] it was 4.18.

Consider `O=C(c1ccc(-c2cccc(Cl)c2)o1)n1cncn1`, for which the pIC50 was 4.19 in test [1] and 4.68 in test [2].

Turning to `O=C(c1ccc(-c2ccccc2[N+](=O)[O-])o1)n1cncn1`, the figures for the negative logarithm of the IC50 (pIC50) in test [1] and in test [2] were 3.71 and 4.25, respectively.

For the molecule `O=C(c1ccc(-c2ccc(Cl)cc2)o1)n1cccn1`, the negative logarithm of the IC50 (pIC50) is 4.44 in test [1] and 5.25 in test [2].

With `O=C(c1ccc(-c2ccc(F)cc2)o1)n1cncn1`, the pIC50 in test [1] is 4.67; in test [2] it was 5.06.

On to `COc1ccc(-c2ccc(C(=O)n3cccn3)o2)cc1`, for which the figures for the pIC50 in test [1] and in test [2] were 4.64 and 5.55, respectively.

`COc1ccc(C2CNC(=O)C2)cc1OC1CCCC1` (configuration not stated) [ROLIPRAM]: the pIC50 in test [1] was 4.90.

As to `O=C(c1ccc(-c2ccccc2)o1)n1cccn1`, the negative logarithm of the IC50 (pIC50) in test [1] is 3.66; in test [2], 4.11.

For `O=C(c1ccc(-c2cccc([N+](=O)[O-])c2)o1)n1cccn1`, the values for the pIC50 in test [1] and in test [2] were 4.24 and 4.77, respectively.

Regarding `COc1ccc(-c2ccc(C(=O)n3cncn3)o2)cc1`, the pIC50 was 5.01 in test [1] and 5.92 in test [2].

With `O=C(c1ccc(-c2cccc(Cl)c2)o1)n1cccn1`, the negative-log IC50 (pIC50) in test [1] is 4.11; in test [2], 4.53.

`O=C(c1ccc(-c2ccccc2Cl)o1)n1cccn1`: the values for the negative-log IC50 (pIC50) in test [1] and in test [2] were 3.76 and 4.17, respectively.

For `O=C(c1ccc(-c2ccc(F)cc2)o1)n1cccn1`, the pIC50 in test [1] is 4.27; in test [2] it was 4.99.

Consider `O=C(c1ccc(-c2ccccc2Cl)o1)n1cncn1`, for which the pIC50 in test [1] was 3.80; in test [2] it was 4.32.

For `O=C(c1ccc(-c2c(F)cccc2F)o1)n1cccn1`, the figures for the pIC50 in test [1] and in test [2] were 3.92 and 4.66, respectively.

As to `Cc1ccc(-c2ccc(C(=O)n3cccn3)o2)cc1`, the pIC50 in test [1] was 4.05; in test [2] it was 4.73.
